According to the supplement of paper PMC10307832:

Experiments:
Experiment in all cases: relative viability (nuclei count vs DMSO), 5 days (fraction); higher = more cells survive
Vorinostat + Pictilisib = compound: O=C(CCCCCCC(=O)Nc1ccccc1)NO [Vorinostat] + CS(=O)(=O)N1CCN(Cc2cc3nc(-c4cccc5[nH]ncc45)nc(N4CCOCC4)c3s2)CC1 [Pictilisib] (partner 1 µM)
Method in brief: (§1)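 One day after seeding in 1536-well plates, lung cancer cell lines were dosed by pin tool. Dosing was either single-drug or a fixed anchor-drug dose plus five library-drug doses (not always all listed) in √10 steps. After 5 days, nuclei were stained in one fix-and-stain step and counted on 4× images, and relative viability is the nuclei count of treated wells over that of vehicle wells, given as the median of duplicate plates.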

Vorinostat + Tozasertib = compound: O=C(CCCCCCC(=O)Nc1ccccc1)NO [Vorinostat] + Cc1cc(Nc2cc(N3CCN(C)CC3)nc(Sc3ccc(NC(=O)C4CC4)cc3)n2)n[nH]1 [Tozasertib] (partner 0.1 µM)
Method in brief: as §1

Vorinostat + Foretinib = compound: O=C(CCCCCCC(=O)Nc1ccccc1)NO [Vorinostat] + COc1cc2c(Oc3ccc(NC(=O)C4(C(=O)Nc5ccc(F)cc5)CC4)cc3F)ccnc2cc1OCCCN1CCOCC1 [Foretinib] (partner 0.25 µM)
Method in brief: as §1

Vorinostat + AZD7762 = compound: O=C(CCCCCCC(=O)Nc1ccccc1)NO [Vorinostat] + NC(=O)Nc1cc(-c2cccc(F)c2)sc1C(=O)N[C@H]1CCCNC1 [AZD7762] (partner 0.2 µM)
Method in brief: as §1

Vorinostat + Linsitinib = compound: O=C(CCCCCCC(=O)Nc1ccccc1)NO [Vorinostat] + C[C@]1(O)C[C@@H](c2nc(-c3ccc4ccc(-c5ccccc5)nc4c3)c3c(N)nccn32)C1 [Linsitinib] (partner 1 µM)
Method in brief: as §1

Cell Line | relative viability (Vorinostat + Pictilisib; first compound 0.253 µM) | relative viability (Vorinostat + Pictilisib; first compound 0.8 µM) | relative viability (Vorinostat + Pictilisib; first compound 2.53 µM) | relative viability (Vorinostat + Pictilisib; first compound 8 µM) | relative viability (Vorinostat + Tozasertib; first compound 0.253 µM) | relative viability (Vorinostat + Tozasertib; first compound 0.8 µM) | relative viability (Vorinostat + Tozasertib; first compound 2.53 µM) | relative viability (Vorinostat + Tozasertib; first compound 8 µM) | relative viability (Vorinostat + Foretinib; first compound 0.253 µM) | relative viability (Vorinostat + Foretinib; first compound 0.8 µM) | relative viability (Vorinostat + Foretinib; first compound 2.53 µM) | relative viability (Vorinostat + Foretinib; first compound 8 µM) | relative viability (Vorinostat + AZD7762; first compound 0.253 µM) | relative viability (Vorinostat + AZD7762; first compound 0.8 µM) | relative viability (Vorinostat + AZD7762; first compound 2.53 µM) | relative viability (Vorinostat + AZD7762; first compound 8 µM) | relative viability (Vorinostat + Linsitinib; first compound 0.253 µM) | relative viability (Vorinostat + Linsitinib; first compound 0.8 µM) | relative viability (Vorinostat + Linsitinib; first compound 2.53 µM) | relative viability (Vorinostat + Linsitinib; first compound 8 µM)
LU99A | 0.264 | 0.278 | 0.154 | 0.141 | 0.299 | 0.259 | 0.208 | 0.213 | 0.81 | 0.692 | 0.319 | 0.222 | 0.279 | 0.198 | 0.15 | 0.0946 | 0.429 | 0.465 | 0.27 | 0.117
201T | 0.741 | 0.605 | 0.522 | 0.313 | 0.742 | 0.534 | 0.334 | 0.203 | 1.25 | 0.983 | 0.511 | 0.165 | 0.527 | 0.595 | 0.495 | 0.197 | 1.04 | 0.932 | 0.825 | 0.363
LCLC-103H | 0.794 | 0.55 | 0.306 | 0.211 | 0.377 | 0.27 | 0.162 | 0.127 | 0.924 | 0.801 | 0.243 | 0.135 | 0.696 | 0.672 | 0.45 | 0.238 | 1.18 | 0.999 | 0.597 | 0.172
HCC-827 | 1.1 | 1.08 | 0.732 | 0.411 | 0.5 | 0.454 | 0.236 | 0.135 | 1.07 | 1.02 | 0.55 | 0.174 | 0.181 | 0.321 | 0.215 | 0.178 | 1.01 | 1.04 | 0.837 | 0.21
H3255 | 0.599 | 0.574 | 0.318 | 0.183 | 0.705 | 0.525 | 0.277 | 0.219 | 0.859 | 0.868 | 0.812 | 0.223 | 0.989 | 0.923 | 0.507 | 0.279 | 1.01 | 0.941 | 0.589 | 0.247
NCI-H1975 | 0.321 | 0.242 | 0.0978 | 0.118 | 0.762 | 0.484 | 0.118 | 0.077 | 0.962 | 0.838 | 0.295 | 0.108 | 0.791 | 0.641 | 0.272 | 0.197 | 0.987 | 0.8 | 0.294 | 0.145
NCI-H441 | 0.517 | 0.448 | 0.164 | 0.11 | 0.607 | 0.529 | 0.3 | 0.194 | 0.874 | 0.971 | 0.59 | 0.175 | 1.21 | 0.903 | 0.238 | 0.122 | 0.501 | 0.619 | 0.255 | 0.117
ABC-1 | 0.981 | 0.509 | 0.168 | 0.118 | 0.203 | 0.198 | 0.18 | 0.112 | 1.07 | 0.834 | 0.358 | 0.102 | 0.875 | 0.587 | 0.309 | 0.125 | 1 | 0.505 | 0.331 | 0.106
